Our source for the solubility values is US11649246B2, “Salts of 4-amino-N-(l-((3-chloro-2-fluorophenyl)amino)-6-methylisoquinolin-5-yl)thieno[3,2-D]pyrimidine-7-carboxamide, and crystalline forms thereof” (Hanmi Pharm. Co., Ltd., priority 2017, dated 2023).

A value given as a limit tells only on which side of the number the result lay.

The solubility is how much of the substance goes into solution per volume.

This data set is described as follows: Water solubility of Formula (I) free base. Format: physicochemical. As to the method: Formula (I) free base is poorly soluble in water with a solubility of less than 0.4 μg/mL. Salt forms of free base compounds may result in improved water solubility.

For the molecule `Cc1ccc2c(Nc3cccc(Cl)c3F)nccc2c1NC(=O)c1csc2c(N)ncnc12` [Formula (I) free base, 4-amino-N-(1-((3-chloro-2-fluorophenyl)amino)-6-methylisoquinolin-5-yl)thieno[3,2-d]pyrimidine-7-carboxamide], the solubility is less than 0.4 µg/mL.
